Test results reported in patent US20200368315A1, “ANTIMICROBIAL PEPTIDES AND ADMIXTURES THEREOF SHOWING ANTIMICROBIAL ACTIVITY AGAINST GRAM-NEGATIVE PATHOGENS” (priority 2017, published 2020).
Like-named read-outs stand apart in the source and are kept apart here. No end group written: not given here.

Assays:
[1] = tested on: E. aerogenes LMG 02094; details: for MICb: MIC of GNP alone
Experimental: (§1) The test of synergistic effect was processed by conducting standard chequerboard broth microdilution assays. […] Row 11 are used as growth control with no peptide was included, while row 12 with MHB medium-only wells was included as a sterility control as referred before. 50 uL fresh bacterial suspension was added to well 1-11 and final volume of each well on the plate is 100 uL.
(§2) The test of synergistic effect was processed as method 1.4.
(§3) To determine whether the combination therapy is additive, synergistic or antagonistic, fractional inhibitory concentration (FIC) indices were calculated. FICI=FICa+FICb=MICac/MICa+MICbc/MICb. The MICa/MICb is the MIC of compound A/B alone. MICac is the MIC of compound A in combination with compound B and MICbc is the MIC of compound B when it was combination with compound A. […]. FICa is FIC of compound A while FICb is FIC of compound B. The FICI is interpreted as follows: synergistic, FICI≤0.5; additive, 0.5<FICI<1; indifferent, 1<FICI<2; antagonistic, FICI>2.

[2] = tested on: K. pneumoniae LMG20218; details: for MICb: MIC of GNP alone; for MICbc: MIC of GNP in combination with vancomycin at the MICac concentration; for MICac: MIC of vancomycin in combination with the GNP at the MICbc concentration
Experimental: as §1, §2, §3

[3] = tested on: P. aeruginosa LMG 6395; details: for MICb: MIC of GNP alone; for MICbc: MIC of GNP in combination with vancomycin at the MICac concentration; for MICac: MIC of vancomycin in combination with the GNP at the MICbc concentration
Experimental: as §1, §2, §3

[4] = tested on: A. baumannii LMG01041; details: for MICb: MIC of GNP alone; for MICbc: MIC of GNP in combination with vancomycin at the MICac concentration; for MICac: MIC of vancomycin in combination with the GNP at the MICbc concentration
Experimental: as §1, §2, §3

[5] = tested on: E. coli LMG15862; details: for MICb: MIC of GNP alone; for MICbc: MIC of GNP in combination with vancomycin at the MICac concentration; for MICac: MIC of vancomycin in combination with the GNP at the MICbc concentration
Experimental: as §1, §2, §3

[6] = tested on: K. pneumoniae LMG20218; format: cell-based, Klebsiella pneumoniae; details: for MICb: MIC of GNP alone; for MICbc: MIC of GNP when used with the MICac concentration of nisin; for MICac: MIC of nisin in combination with the GNP at the MICbc concentration
Description: (§4) The test of synergistic effect was processed by conducting standard chequerboard broth microdilution assays. Nisin (Drug X) was loaded two fold serially diluted from row 1 to 10 in X-axis while GNPs (Drug Y) were loaded in eight two fold serially diluted concentrations from line A to H in Y-axis (FIG. 1). The original concentrations of peptides were MICs of each. Row 11 are used as growth control with no peptide was included, while row 12 with MHB medium-only wells was included as a sterility control as referred before. 50 uL fresh bacterial suspension was added to well 1-11 and final volume of each well on the plate is 100 uL.
as §3

[7] = tested on: P. aeruginosa LMG 6395; format: cell-based, Pseudomonas aeruginosa; details: for MICb: MIC of GNP alone; for MICbc: MIC of GNP when used with the MICac concentration of nisin; for MICac: MIC of nisin in combination with the GNP at the MICbc concentration
Description: as §4, §3

[8] = tested on: E. aerogenes LMG 02094; format: cell-based, Enterobacter aerogenes; details: for MICb: MIC of GNP alone
Description: as §4, §3

[9] = tested on: A. baumannii LMG01041; format: cell-based, Acinetobacter baumannii; details: for MICb: MIC of GNP alone; for MICbc: MIC of GNP when used with the MICac concentration of nisin; for MICac: MIC of nisin in combination with the GNP at the MICbc concentration
Description: as §4, §3

[10] = tested on: E. coli LMG15862; format: cell-based, Escherichia coli; details: for MICb: MIC of GNP alone; for MICbc: MIC of GNP when used with the MICac concentration of nisin; for MICac: MIC of nisin in combination with the GNP at the MICbc concentration
Description: as §4, §3

[11] = tested on: A. baumannii LMG01041; assay: microbe, parasite or virus in culture; format: cell-based, Acinetobacter baumannii; details: LMG01041
Experimental: (§5) Escherichia coli, Klebsiella pneumoniae, Pseudomonas aeruginosa, Acinetobacter baumannii, Enterobacter aerogenes were grown in Luria-Bertani (LB) broth shaken (200 rpm) or on LB agar at 37° C. […] MICs tests were performed in duplicate by a liquid growth inhibition microdilution assays in sterilized polypropylene microtiter plates according to Wiegand and […] [27]. […] The suspension was diluted in a ratio of 1:100 using Mueller Hinton Broth (MHB) and the final inoculum is 5*10^5 CFU/mL. […] The antimicrobials were diluted serially by 1/2 one by one and 50 uL diluted bacterial suspension were added to each well to make the final volume to be 100 uL. Growth control was accomplished by remove 10 uL from well 11 and dilute 1000 times to plate 1/10 suspension on the solid medium. […] The number of colonies on the control agar plate should be around 50 to ensure the concentration of the inoculum and the effectiveness of the experiment. The lowest concentration of the antimicrobials that inhibits visible growth of the indicator is identified as MIC.

[12] = tested on: P. aeruginosa LMG 6395; assay: microbe, parasite or virus in culture; format: cell-based, Pseudomonas aeruginosa; details: LMG 6395
Experimental: as §5

[13] = tested on: K. pneumoniae LMG20218; assay: microbe, parasite or virus in culture; format: cell-based, Klebsiella pneumoniae; details: LMG20218
Experimental: as §5

[14] = tested on: E. aerogenes LMG 02094; assay: microbe, parasite or virus in culture; format: cell-based, Enterobacter aerogenes; details: LMG 02094
Experimental: as §5

[15] = tested on: E. coli LMG15862; assay: microbe, parasite or virus in culture; format: cell-based, Escherichia coli; details: L-form GNP; E. coli LMG15862; Table 6
Experimental: as §5

KIVQRIKKWLR-NH2 [GNP8-2]
MICb [1]: 256 µM | MICbc ([1]; MIC of GNP in combination with vancomycin at the MICac concentration): 16 µM | MICac ([1]; MIC of vancomycin in combination with the GNP at the MICbc concentration): 12 µM | MICb [2]: 32 µM | MICbc [2]: 8 µM | MICac [2]: 16 µM | MICb [3]: 16 µM | MICbc [3]: 2 µM | MICac [3]: 16 µM | MICb [4]: 128 µM | MICbc [4]: 4 µM | MICac [4]: 4 µM | MICb [5]: 16 µM | MICbc [5]: 2 µM | MICac [5]: 4 µM | MICb [6]: 32 µM | MICbc [6]: 2 µM | MICac [6]: 0.75 µM | MICb [7]: 16 µM | MICbc [7]: 4 µM | MICac [7]: 4.5 µM | MICb [8]: 256 µM | MICbc ([8]; MIC of GNP when used with the MICac concentration of nisin): 1 µM | MICac ([8]; MIC of nisin in combination with the GNP at the MICbc concentration): 4 µM | MICb [9]: 128 µM | MICbc [9]: 16 µM | MICac [9]: 0.375 µM | MICb [10]: 16 µM | MICbc [10]: 2 µM | MICac [10]: 1.5 µM

KRIVQRIKKWLR-NH2 [GNP-9]
MICb (MIC of GNP alone) [11]: 16 µM | MICb (MIC of GNP alone) [12]: 16 µM | MICb (MIC of GNP alone) [13]: 64 µM | MICb (MIC of GNP alone) [14]: >32 µM | MICb (GNP concentration when used alone) [15]: 4 µM

RIKRRIKKWLR-NH2 [GNP8-5]
MICb [1]: >256 µM | MICb [2]: >256 µM | MICb [3]: 32 µM | MICbc [3]: 8 µM | MICac [3]: 16 µM | MICb [4]: >256 µM | MICb [5]: 24 µM | MICbc [5]: 3 µM | MICac [5]: 4 µM | MICb [6]: >256 µM | MICb [7]: 32 µM | MICbc [7]: 8 µM | MICac [7]: 9 µM | MICb [8]: >256 µM | MICb [9]: >256 µM | MICb [10]: 24 µM | MICbc [10]: 3 µM | MICac [10]: 3 µM

RIRKRIKKWLR-NH2 [GNP8-4]
MICb [1]: >256 µM | MICb [2]: >256 µM | MICb [3]: 16 µM | MICbc [3]: 8 µM | MICac [3]: 4 µM | MICb [4]: >256 µM | MICb [5]: 16 µM | MICbc [5]: 2 µM | MICac [5]: 4 µM | MICb [6]: >256 µM | MICb [7]: 16 µM | MICbc [7]: 4 µM | MICac [7]: 2.25 µM | MICb [8]: >256 µM | MICb [9]: >256 µM | MICb [10]: 16 µM | MICbc [10]: 2 µM | MICac [10]: 3 µM

RIVQRIKKWL-NH2 [GNP8-1]
MICb [1]: >256 µM | MICb [2]: 64 µM | MICbc [2]: 8 µM | MICac [2]: 16 µM | MICb [3]: 16 µM | MICbc [3]: 2 µM | MICac [3]: 16 µM | MICb [4]: 128 µM | MICbc [4]: 16 µM | MICac [4]: 1 µM | MICb [5]: 32 µM | MICbc [5]: 4 µM | MICac [5]: 8 µM | MICb [6]: 64 µM | MICbc [6]: 1 µM | MICac [6]: 3 µM | MICb [7]: 16 µM | MICbc [7]: 4 µM | MICac [7]: 4.5 µM | MICb [8]: >256 µM | MICb [9]: 128 µM | MICbc [9]: 16 µM | MICac [9]: 0.375 µM | MICb [10]: 32 µM | MICbc [10]: 4 µM | MICac [10]: 1.5 µM

RIVQRIKKWR-NH2 [GNP8-6]
MICb [1]: >256 µM | MICb [2]: >256 µM | MICb [3]: >256 µM | MICb [4]: >256 µM | MICb [5]: 256 µM | MICbc [5]: 16 µM | MICac [5]: 8 µM | MICb [6]: >256 µM | MICb [7]: >256 µM | MICb [8]: >256 µM | MICb [9]: >256 µM | MICb [10]: 256 µM | MICbc [10]: 64 µM | MICac [10]: 6 µM
